Results taken from article PMC5916850 (Bioorganic & medicinal chemistry letters, 2018).

Molecular target: GRK5 (Homo sapiens, UniProt P34947)
Experiment: GRK phosphorylation assay, GRK5
Conditions: average of three separate experiments run in duplicate; error = standard error of the mean

Sequence of GRK5 (P34947 whole entry, species assumed): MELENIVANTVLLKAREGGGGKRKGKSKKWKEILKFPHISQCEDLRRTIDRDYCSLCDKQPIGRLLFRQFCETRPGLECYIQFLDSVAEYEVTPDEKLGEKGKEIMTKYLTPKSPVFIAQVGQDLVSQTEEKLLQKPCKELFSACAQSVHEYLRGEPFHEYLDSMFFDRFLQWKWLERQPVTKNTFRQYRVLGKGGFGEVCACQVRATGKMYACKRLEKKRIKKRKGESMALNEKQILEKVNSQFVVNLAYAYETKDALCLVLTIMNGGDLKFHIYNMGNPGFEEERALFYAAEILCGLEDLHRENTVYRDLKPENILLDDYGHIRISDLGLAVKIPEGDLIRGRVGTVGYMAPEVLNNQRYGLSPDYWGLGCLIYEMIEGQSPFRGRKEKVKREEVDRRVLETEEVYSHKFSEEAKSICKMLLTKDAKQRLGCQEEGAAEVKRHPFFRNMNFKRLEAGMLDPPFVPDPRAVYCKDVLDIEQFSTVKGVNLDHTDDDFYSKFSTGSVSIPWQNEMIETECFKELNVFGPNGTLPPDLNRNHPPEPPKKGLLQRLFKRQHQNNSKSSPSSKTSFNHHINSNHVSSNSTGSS

GRK5 (IC50 μM)	SMILES
no sub-μM IC50 values	COCCCC1CCCCN1C(=O)c1cc(C2NC(=O)NC(C)=C2C(=O)Nc2ccc3[nH]ncc3c2)ccc1F (stereo not shown) [Compound 48]
no sub-μM IC50 values	CC1=C(C(=O)Nc2ccc3[nH]ncc3c2)C(c2ccc(F)c(C(=O)NC3CC4CCC3(C)C4(C)C)c2)NC(=O)N1 (stereo not shown) [Compound 32]
no sub-μM IC50 values	C#CCN(CC(C)C)C(=O)Cc1cc(C2NC(=O)NC(C)=C2C(=O)Nc2ccc3[nH]ncc3c2)ccc1F (stereo not shown) [Compound 38]
no sub-μM IC50 values	CC1=C(C(=O)Nc2ccc3[nH]ncc3c2)C(c2ccc(F)c(CC(=O)N3CCCC(C(C)(C)C)CC3)c2)NC(=O)N1 (stereo not shown) [Compound 31]
no sub-μM IC50 values	CCC(C)CN(CCO)C(=O)Cc1cc(C2NC(=O)NC(C)=C2C(=O)Nc2ccc3[nH]ncc3c2)ccc1F (stereo not shown) [Compound 44]
no sub-μM IC50 values	CC1=C(C(=O)Nc2ccc3[nH]ncc3c2)C(c2ccc(F)c(CCC(=O)N(CC(C)C)C(C)C)c2)NC(=O)N1 (stereo not shown) [Compound 41]
no sub-μM IC50 values	CC1=C(C(=O)Nc2ccc3[nH]ncc3c2)C(c2ccc(F)c(C(=O)NC(C)CCCC(C)C)c2)NC(=O)N1 (stereo not shown) [Compound 47]
